Test results reported in patent US9981964B2 (Agency for Science, Technology and Research, priority 2013, dated 2018).

test system: HEK293-STF3A cells; assay: STF3A assay (STF luciferase reporter in Wnt3A-expressing HEK293 cells); assay type: cell-based; settings: Homo sapiens, 24 h, 1 day of treatment
Source text: HEK293-STF cell line was modified from Human embryonic kidney cell line HEK293 transfected with the STF reporter. HEK293-STF3A cell line was further modified from HEK293-STF cell line to express Wnt3A. This cell line was used to identify compounds that regulate either early or late signaling components of the Wnt pathway. These two cell lines were obtained from David Virshup's laboratory, Duke-NUS. L-Wnt3A (ATCC, #CRL-2647) cell line was used for providing Wnt3A conditioned media. The three cell lines were grown in DMEM with 10% FBS incubated in 37° C. with 5% CO2.
2×10^4 HEK293-STF3A cells in 75 μl culture media were seeded in each well of white 96 well plates (Greiner #655098) and incubated overnight at 37° C. 25 μl serially diluted compound was added to the cells to give final concentration of 50 μM to 1.5 nM. After 1 day of treatment, 100 μl of Steady-Glo Luciferase Assay reagent (#E2520, Promega) was added to each well and incubated for 10 minutes at room temperature. Luminescence was measured using Tecan Safire2 plate reader.

| Compound | IC50 |
| --- | --- |
| C[C@@H](C(=O)Nc1ccc(-c2cccnc2)cn1)N1CCCC2=C1C(=O)N(C)C2=O (single isomer, unassigned) [Compound 92] | < 100 nM |
| C[C@H](C(=O)Nc1ccc(-c2cccnc2)cn1)N1CCCC2=C1C(=O)N(C)C2=O (single isomer, unassigned) [Compound 93] | < 1000 nM |
| C[C@@H](C(=O)Nc1ccc(-c2ccccc2)nn1)N1CCCC2=C1C(=O)N(C)C2=O (single isomer, unassigned) [Compound 94] | < 100 nM |
| C[C@H](C(=O)Nc1ccc(-c2ccccc2)nn1)N1CCCC2=C1C(=O)N(C)C2=O (single isomer, unassigned) [Compound 95] | > 10000 nM |
| C[C@@H](C(=O)Nc1ccc(-c2cccnc2)nc1)N1CCCC2=C1C(=O)N(C)C2=O (single isomer, unassigned) [Compound 116] | < 100 nM |
| C[C@H](C(=O)Nc1ccc(-c2cccnc2)nc1)N1CCCC2=C1C(=O)N(C)C2=O (single isomer, unassigned) [Compound 117] | < 1000 nM |
| CN1C(=O)C2=C(C1=O)N(CC(=O)Nc1ccc(-c3ccccn3)cn1)CCC2 [Compound 1, N-([2,3′-bipyridin]-6′-yl)-2-(6-methyl-5,7-dioxo-2,3,4,5,6,7-hexahydro-1H-pyrrolo[3,4-b]pyridin-1-yl)acetamide] | < 100 nM |
| CN1C(=O)C2=C(C1=O)N(CC(=O)Nc1ccc(-c3nccs3)cc1)CCC2 [Compound 2, 2-(6-methyl-5,7-dioxo-2,3,4,5,6,7-hexahydro-1H-pyrrolo[3,4-b]pyridin-1-yl)-N-(4-(thiazol-2-yl)phenyl)acetamide] | < 100 nM |
| CN1C(=O)C2=C(C1=O)N(CC(=O)Nc1ccc(-c3ccccc3)nn1)CCC2 [Compound 3, 2-(6-methyl-5,7-dioxo-2,3,4,5,6,7-hexahydro-1H-pyrrolo[3,4-b]pyridin-1-yl)-N-(6-phenylpyridazin-3-yl)acetamide] | < 100 nM |
| CN1C(=O)C2=C(C1=O)N(CC(=O)Nc1ccc(-c3ccc(F)cc3)nn1)CCC2 [Compound 4, N-(6-(4-fluorophenyl)pyridazin-3-yl)-2-(6-methyl-5,7-dioxo-2,3,4,5,6,7-hexahydro-1H-pyrrolo[3,4-b]pyridin-1-yl)acetamide] | < 100 nM |
| CN1C(=O)C2=C(C1=O)N(CC(=O)Nc1ccc(-c3ccccc3)cn1)CCC2 [Compound 5, 2-(6-methyl-5,7-dioxo-2,3,4,5,6,7-hexahydro-1H-pyrrolo[3,4-b]pyridin-1-yl)-N-(5-phenylpyridin-2-yl)acetamide] | < 100 nM |
| CN1C(=O)C2=C(C1=O)N(CC(=O)Nc1ccc(-c3nccs3)cn1)CCC2 [Compound 6, 2-(6-methyl-5,7-dioxo-2,3,4,5,6,7-hexahydro-1H-pyrrolo[3,4-b]pyridin-1-yl)-N-(5-(thiazol-2-yl)pyridin-2-yl)acetamide] | < 100 nM |
| CN1C(=O)C2=C(C1=O)N(CC(=O)Nc1ccc(-c3ccc(F)cc3)cn1)CCC2 [Compound 7, N-(5-(4-fluorophenyl)pyridin-2-yl)-2-(6-methyl-5,7-dioxo-2,3,4,5,6,7-hexahydro-1H-pyrrolo[3,4-b]pyridin-1-yl)acetamide] | < 100 nM |
| CN1C(=O)C2=C(C1=O)N(CC(=O)Nc1ccc(-c3cccnc3)cn1)CCC2 [Compound 8, N-([3,3′-bipyridin]-6-yl)-2-(6-methyl-5,7-dioxo-2,3,4,5,6,7-hexahydro-1H-pyrrolo[3,4-b]pyridin-1-yl)acetamide] | < 100 nM |
| CN1C(=O)C2=C(C1=O)N(CC(=O)Nc1ccc(-c3cccnc3)nc1)CCC2 [Compound 10, N-([2,3′-bipyridin]-5-yl)-2-(6-methyl-5,7-dioxo-2,3,4,5,6,7-hexahydro-1H-pyrrolo[3,4-b]pyridin-1-yl)acetamide] | < 100 nM |
| CC(C(=O)Nc1ccc(-c2cccnc2)cn1)N1CCCC2=C1C(=O)N(C)C2=O (stereo not shown) [Compound 11, N-([3,3′-bipyridin]-6-yl)-2-(6-methyl-5,7-dioxo-2,3,4,5,6,7-hexahydro-1H-pyrrolo[3,4-b]pyridin-1-yl)propanamide] | < 100 nM |
| CN1C(=O)C2=C(C1=O)N(CC(=O)Nc1cnc(-c3ccccc3)cn1)CCC2 [Compound 12, 2-(6-methyl-5,7-dioxo-2,3,4,5,6,7-hexahydro-1H-pyrrolo[3,4-b]pyridin-1-yl)-N-(5-phenylpyrazin-2-yl)acetamide] | < 100 nM |

| Compound | IC50 |
| --- | --- |
| CC(C(=O)Nc1ccc(-c2ccccc2)nn1)N1CCCC2=C1C(=O)N(C)C2=O (stereo not shown) [Compound 13, 2-(6-methyl-5,7-dioxo-2,3,4,5,6,7-hexahydro-1H-pyrrolo[3,4-b]pyridin-1-yl)-N-(6-phenylpyridazin-3-yl)propanamide] | < 100 nM |
| Cc1nc(-c2ccc(NC(=O)CN3CCCC4=C3C(=O)N(C3CC3)C4=O)nc2)cs1 [Compound 15, 2-(6-cyclopropyl-5,7-dioxo-2,3,4,5,6,7-hexahydro-1H-pyrrolo[3,4-b]pyridin-1-yl)-N-(5-(2-methylthiazol-4-yl)pyridin-2-yl)acetamide] | < 100 nM |
| O=C(CN1CCCC2=C1C(=O)N(C1CC1)C2=O)Nc1ccc(-c2ccccn2)cn1 [Compound 16, N-([2,3′-bipyridin]-6′-yl)-2-(6-cyclopropyl-5,7-dioxo-2,3,4,5,6,7-hexahydro-1H-pyrrolo[3,4-b]pyridin-1-yl)acetamide] | < 100 nM |
| CC(C(=O)Nc1ccc(-c2ccccn2)cn1)N1CCCC2=C1C(=O)N(C)C2=O (stereo not shown) [Compound 17, N-([2,3′-bipyridin]-6′-yl)-2-(6-methyl-5,7-dioxo-2,3,4,5,6,7-hexahydro-1H-pyrrolo[3,4-b]pyridin-1-yl)propanamide] | < 100 nM |
| CC(C(=O)Nc1cc(-c2cccc(Cl)c2)no1)N1CCCC2=C1C(=O)N(C)C2=O (stereo not shown) [Compound 18, N-(3-(3-chlorophenyl)isoxazol-5-yl)-2-(6-methyl-5,7-dioxo-2,3,4,5,6,7-hexahydro-1H-pyrrolo[3,4-b]pyridin-1-yl)propanamide] | < 5000 nM |
| CC(C(=O)Nc1cnc(-c2ccccc2)cn1)N1CCCC2=C1C(=O)N(C)C2=O (stereo not shown) [Compound 19, 2-(6-methyl-5,7-dioxo-2,3,4,5,6,7-hexahydro-1H-pyrrolo[3,4-b]pyridin-1-yl)-N-(5-phenylpyrazin-2-yl)propanamide] | < 100 nM |
| CC(C(=O)Nc1ccc(-c2cccnc2)nc1)N1CCCC2=C1C(=O)N(C)C2=O (stereo not shown) [Compound 20, N-([2,3′-bipyridin]-5-yl)-2-(6-methyl-5,7-dioxo-2,3,4,5,6,7-hexahydro-1H-pyrrolo[3,4-b]pyridin-1-yl)propanamide] | < 100 nM |
| CN1C(=O)C2=C(C1=O)N(CC(=O)Nc1cnc(-c3cccnc3)cn1)CCC2 [Compound 21, 2-(6-methyl-5,7-dioxo-2,3,4,5,6,7-hexahydro-1H-pyrrolo[3,4-b]pyridin-1-yl)-N-(5-(pyridin-3-yl)pyrazin-2-yl)acetamide] | < 100 nM |
| CN1C(=O)C2=C(C1=O)N(CC(=O)Nc1cnc(-c3ccncc3)cn1)CCC2 [Compound 22, 2-(6-methyl-5,7-dioxo-2,3,4,5,6,7-hexahydro-1H-pyrrolo[3,4-b]pyridin-1-yl)-N-(5-(pyridin-4-yl)pyrazin-2-yl)acetamide] | > 10000 nM |
| CC(C(=O)Nc1cnc(-c2cccnc2)cn1)N1CCCC2=C1C(=O)N(C)C2=O (stereo not shown) [Compound 23, 2-(6-methyl-5,7-dioxo-2,3,4,5,6,7-hexahydro-1H-pyrrolo[3,4-b]pyridin-1-yl)-N-(5-(pyridin-3-yl)pyrazin-2-yl)propanamide] | < 100 nM |
| Cc1ccc(-c2ccc(NC(=O)CN3CCCC4=C3C(=O)N(C)C4=O)cn2)cn1 [Compound 24, 2-(6-methyl-5,7-dioxo-2,3,4,5,6,7-hexahydro-1H-pyrrolo[3,4-b]pyridin-1-yl)-N-(6′-methyl-[2,3′-bipyridin]-5-yl)acetamide] | < 100 nM |
| CN1C(=O)C2=C(C1=O)N(CC(=O)Nc1ccc(-c3cccnc3)nn1)CCC2 [Compound 25, 2-(6-methyl-5,7-dioxo-2,3,4,5,6,7-hexahydro-1H-pyrrolo[3,4-b]pyridin-1-yl)-N-(6-(pyridin-3-yl)pyridazin-3-yl)acetamide] | < 100 nM |
| O=C(CN1CCCC2=C1C(=O)N(C1CC1)C2=O)Nc1cnc(-c2cccnc2)cn1 [Compound 26, 2-(6-cyclopropyl-5,7-dioxo-2,3,4,5,6,7-hexahydro-1H-pyrrolo[3,4-b]pyridin-1-yl)-N-(5-(pyridin-3-yl)pyrazin-2-yl)acetamide] | < 100 nM |
| Cc1ccccc1-c1ccc(NC(=O)CN2CCCC3=C2C(=O)N(C)C3=O)nn1 [Compound 27, 2-(6-methyl-5,7-dioxo-2,3,4,5,6,7-hexahydro-1H-pyrrolo[3,4-b]pyridin-1-yl)-N-(6-(o-tolyl)pyridazin-3-yl)acetamide] | < 1000 nM |
| COc1ccccc1-c1ccc(NC(=O)CN2CCCC3=C2C(=O)N(C)C3=O)nn1 [Compound 28, N-(6-(2-methoxyphenyl)pyridazin-3-yl)-2-(6-methyl-5,7-dioxo-2,3,4,5,6,7-hexahydro-1H-pyrrolo[3,4-b]pyridin-1-yl)acetamide] | > 10000 nM |
| Cc1cccc(-c2ccc(NC(=O)CN3CCCC4=C3C(=O)N(C)C4=O)nn2)c1 [Compound 29, 2-(6-methyl-5,7-dioxo-2,3,4,5,6,7-hexahydro-1H-pyrrolo[3,4-b]pyridin-1-yl)-N-(6-(m-tolyl)pyridazin-3-yl)acetamide] | < 100 nM |
| Cc1ccc(-c2ccc(NC(=O)CN3CCCC4=C3C(=O)N(C)C4=O)nn2)cc1 [Compound 30, 2-(6-methyl-5,7-dioxo-2,3,4,5,6,7-hexahydro-1H-pyrrolo[3,4-b]pyridin-1-yl)-N-(6-(p-tolyl)pyridazin-3-yl)acetamide] | < 100 nM |
